In US20050112183A1, “Compositions and methods for treating neuropathic sensory loss” (priority 2003, published 2005):

Test system: neuropathically induced negative sensory phenomena (NSP)
Assay: application of local anesthetic to diabetic neuropathy patients, patient-reported
Format: in vivo
Details: some diabetic neuropathy patients; local application of the anesthetic
Excerpt: It has previously been assumed that positive sensory phenomena (“PSP”) is caused by an increase in spontaneous nerve discharge from damaged and dysfunctional peripheral nerves. […] Based on the current understanding of the underlying etiology of NSP it would be unexpected that an anesthetic would effectively mitigate the negative effects of NSP. It has now been found, however, that the application of local anesthetics such as lidocaine can effectively treat NSP. For example, some diabetic neuropathy patients reported both pain relief and improved NSP, that is, the patients experienced pain relief, improvement of sensory loss (decreased numbness), and improved tactile response (they could better feel objects touching their skin). Thus the anesthetic as applied in this embodiment decreased numbness. This is contrary to all prior teachings about anesthetics.

SMILES: CCN(CC)CC(=O)Nc1c(C)cccc1C [lidocaine, 2-(diethylamino)-N-(2,6-dimethylphenyl)-acetamide]
- negative sensory phenomena (NSP: numbness, sensory loss, tactile response) as reported by patients: improved NSP
- pain as reported by patients: pain relief
